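These data come from cells grown in 96-well plates and exposed to compound for 48 hours at five concentrations. Abbreviation: GI50, concentration required for 50% inhibition of growth.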 Active and inactive are the calls of the source. No stated cut-off is given here; in the data, active = GI50 up to about 1.1 µM and inactive = higher.
How the values were obtained:
Assay in all cases: growth of human tumour cells (NCI), 48 h
[1] = system: 786-0
[2] = system: A498
[3] = system: ACHN
[4] = system: BT-549
[5] = system: CAKI-1
[6] = system: CCRF-CEM
[7] = system: COLO 205
[8] = system: DU-145
[9] = system: EKVX
[10] = system: HCT-116
[11] = system: HCT-15
[12] = system: HL-60
[13] = system: HT-29
[14] = system: Hs-578T
[15] = system: IGROV-1
[16] = system: K562
[17] = system: KM12
[18] = system: LOX IMVI
[19] = system: M14
[20] = system: MCF7
[21] = system: MDA-MB-231
[22] = system: MDA-MB-435
[23] = system: MDA-N
[24] = system: MOLT-4
[25] = system: Malme-3M
[26] = system: NCI-H226
[27] = system: NCI-H23
[28] = system: NCI-H460
[29] = system: NCI/ADR-RES
[30] = system: OVCAR-3
[31] = system: OVCAR-5
[32] = system: OVCAR-8
[33] = system: PC-3
[34] = system: RPMI-8226
[35] = system: RXF 393
[36] = system: SF-268
[37] = system: SF-295
[38] = system: SF-539
[39] = system: SK-MEL-28
[40] = system: SK-MEL-2
[41] = system: SK-MEL-5
[42] = system: SK-OV-3
[43] = system: SN12C
[44] = system: SNB-19
[45] = system: SNB-75
[46] = system: SW-620
[47] = system: T47D
[48] = system: TK-10
[49] = system: U-251
[50] = system: UACC-257
[51] = system: UACC-62
[52] = system: UO-31
[53] = system: A549
[54] = system: HCC 2998
[55] = system: HOP-62
[56] = system: NCI-H522
[57] = system: OVCAR-4

Measured: GI50

COc1ccc(/C=C2\CCC(C)C3=C(c4ccc(OC)c(OC)c4)C(C#N)=C(N)OC32)cc1OC (stereo not drawn)
3.33 µM: [11]
inactive: [1] 3.35 µM | [2] 3.76 µM | [3] 3.66 µM | [4] 3.51 µM | [5] 4.36 µM | [6] 2.28 µM | [7] 2.76 µM | [8] 5.5 µM | [9] 1.86 µM | [10] 2.82 µM | [12] 2.63 µM | [13] 2.75 µM | [14] 4.42 µM | [15] 2.39 µM | [16] 3.78 µM | [17] 3.3 µM | [18] 3.16 µM | [19] 3.17 µM | [20] 3.26 µM | [21] 2.95 µM | [22] 2.7 µM | [23] 3.45 µM | [24] 2.55 µM | [25] 2.48 µM | [26] 2.39 µM | [27] 2.7 µM | [28] 3.03 µM | [29] 2.65 µM | [30] 3.58 µM | [31] 2.75 µM | [32] 4.01 µM | [33] 3.13 µM | [34] 2.04 µM | [35] 1.65 µM | [36] 9.77 µM | [37] 3.43 µM | [38] 1.55 µM | [39] 3.86 µM | [40] 1.97 µM | [41] 2.01 µM | [42] 3.42 µM | [43] 3.45 µM | [44] 7.94 µM | [45] 2.33 µM | [46] 4.29 µM | [47] 2.17 µM | [48] 4.04 µM | [49] 3.58 µM | [50] 4.18 µM | [51] 2.86 µM | [52] 2.4 µM

Cc1cccc2[nH]c3c(c(O)cc4[nH]c5cccc(C)c5c(=O)c43)c(=O)c12
inactive: [1] 2.99 µM | [2] > 10 µM | [53] > 10 µM | [3] 5.83 µM | [4] 3.63 µM | [5] > 10 µM | [6] > 10 µM | [7] 3.84 µM | [8] 5.98 µM | [9] 6.53 µM | [54] > 10 µM | [10] 3.65 µM | [12] 3.33 µM | [55] > 10 µM | [13] 3.85 µM | [14] 7.19 µM | [15] 5.74 µM | [16] 4.02 µM | [17] 6.87 µM | [18] 3.65 µM | [19] 4.47 µM | [20] > 10 µM | [21] 8.11 µM | [22] 4.89 µM | [23] > 10 µM | [24] 3.88 µM | [25] 6.95 µM | [26] 5.16 µM | [27] 3 µM | [28] 5.57 µM | [56] > 10 µM | [29] > 10 µM | [30] 6 µM | [57] 4.33 µM | [31] > 10 µM | [32] 6.11 µM | [33] 4.06 µM | [34] > 10 µM | [35] 7 µM | [36] > 10 µM | [37] 7.53 µM | [38] > 10 µM | [39] > 10 µM | [40] > 10 µM | [41] 9.04 µM | [42] > 10 µM | [43] 4.97 µM | [44] > 10 µM | [45] > 10 µM | [46] 6.11 µM | [47] 8.83 µM | [48] 5.08 µM | [49] 3.3 µM | [50] 4.55 µM | [51] > 10 µM
> 10 µM: [11]

NC(Cc1ccc(S(=O)(=O)O)cc1)C(=O)NC(Cc1ccc(S(=O)(=O)O)cc1)C(=O)NC(Cc1ccc(S(=O)(=O)O)cc1)C(=O)NC(Cc1ccc(S(=O)(=O)O)cc1)C(=O)O (stereo not drawn)
inactive: [1] > 100 µM | [2] > 100 µM | [53] > 100 µM | [3] > 100 µM | [4] > 100 µM | [5] > 100 µM | [6] > 100 µM | [7] > 100 µM | [8] > 100 µM | [9] > 100 µM | [54] > 100 µM | [10] > 100 µM | [12] > 10 µM | [55] > 100 µM | [13] > 100 µM | [14] > 100 µM | [15] > 100 µM | [17] 3.92 µM | [18] > 100 µM | [19] > 100 µM | [20] 46.1 µM | [21] > 100 µM | [22] > 100 µM | [23] > 100 µM | [24] > 100 µM | [25] 68.5 µM | [26] > 100 µM | [27] > 100 µM | [28] > 100 µM | [56] > 100 µM | [29] > 100 µM | [30] > 100 µM | [57] > 100 µM | [31] > 100 µM | [32] > 100 µM | [33] > 100 µM | [34] > 100 µM | [35] > 100 µM | [36] > 100 µM | [37] > 100 µM | [38] > 100 µM | [39] > 100 µM | [40] > 100 µM | [41] > 100 µM | [42] > 100 µM | [43] > 100 µM | [45] > 100 µM | [46] > 100 µM | [47] > 100 µM | [48] > 100 µM | [49] > 100 µM | [50] > 100 µM | [51] > 100 µM | [52] > 100 µM
> 100 µM: [11]

— ChEMBL document CHEMBL1201862, “PubChem BioAssay data set” (2004)
